Measurements reported in a melting point compilation (Tetko et al.; mined from patent text by program, amines drawn as free bases though some values may be those of a salt).

| SMILES | melting point [°C] |
| --- | --- |
| CN(C)Cc1cccc(OCCCNc2ncc(Cc3cccnc3)c(=O)[nH]2)c1 | 103 to 104 |
| CN1C2CCCC1CC(c1ccc(I)nn1)C2 (stereo not drawn) | 163 to 166 |
| O=C(NC(=O)c1c(F)cccc1F)Nc1ccc(OC(F)(F)C(F)F)c(C(F)(F)F)c1 | 182 to 185 |
| O=C(O)C1Oc2ccc3c(-c4ccccc4)noc3c2O1 (stereo not drawn) | 187 to 190 |
| COc1c(C)c(N2CCN(c3ccc(C)cc3)CC2)c(C)c2c1OC(C)(C)C2 | 150 to 152 |
| CC(C)(C)c1cc(C(C#N)N2CCCCC2)cc(C(C)(C)C)c1O (stereo not drawn) | 110 to 111 |
| CC(C)CC1(CCCCN2CCc3sccc3C2)C(=O)Nc2ccccc21 (stereo not drawn) | 114 to 116 |
| CCOC(=O)c1cnc(Nc2cccc(OC)c2)[nH]c1=O | 233 to 234 |
| COC1OC(CO)C(O)C(NC(=O)N(C)N=O)C1O (stereo not drawn) | 116 to 117 |
| CCOC(=O)C1=C(N2CC2C(N)=O)CCCC1 (stereo not drawn) | 101 to 104 |
| CCCCN(Cc1ccc(-c2ccccc2-c2nnn[nH]2)cc1)c1ncncc1C(=O)OCOC(C)=O | 65 to 69 |
| COc1ccc(OC)c(NC(=O)Cc2ccccc2)c1 | 85 |
| Cn1c(=O)nc(-c2ccccc2F)c2cc(Cl)sc21 | 192 to 194 |
| COc1cc2c(C)c(-c3ccccc3)sc2c(Cl)c1Cl | 138 |
| CCCC(=O)c1cnc2c(OC)cccc2c1Nc1ccc(OC(C)=O)cc1C | 167 to 169 |
| CCCO/N=C(\C(=O)OC)c1csc(N)n1 | 115 to 116 |
| COC(=O)CCCCCCC1=CCc2cc(OC)ccc21 | 30 to 31.5 |
| Cc1cc2c(-c3ccccc3)noc2c2c1OC(C(=O)O)C2 (stereo not drawn) | 210 to 213 |
| CCC(CC)c1ccc(Cl)c2nc3n(c12)CCN3c1ccc(Cl)cc1C(N)=O | > 300 |
| CC1CC(N)=NN1c1ccccn1 (stereo not drawn) | 154 to 157 |
| CC(C)(C)c1ccc([N+]([O-])=S)cc1 | 40 to 43 |
| CC(CC1C(C(=O)O)C1(C)C)=C(Cl)Cl (stereo not drawn) | 58.5 to 60 |
| COc1ccc2c(c1)c(Cc1cc(=O)n(C3CCCC3)[nH]1)c(C)n2C(=O)c1ccc(Cl)cc1 | 153 to 155 |
| Cc1ccc(P(C)(C)=O)cc1 | 90 to 92 |
| CC(C)c1cc(-c2ccccc2)nc(-c2ccc(F)cc2)c1CO | 172 to 174 |

| SMILES | melting point [°C] |
| --- | --- |
| CC1CC2=CC(=O)CCC2C2C(O)CC3(C)C(=O)CCC3C12 (stereo not drawn) | 200 |
| COc1ccc2c(c1)c(CN(O)C(=O)CCC(=O)O)c(C)n2C(=O)c1ccc(Cl)cc1 | 134 to 136 |
| O=C(OC1C2CN(Cc3ccccc3)CC1CN(C(=O)c1ccc([N+](=O)[O-])cc1)C2)c1ccccc1 (stereo not drawn) | 180 |
| CCC1Cc2cc(NC(C)=O)ccc2C1=O (stereo not drawn) | 154 to 155 |
| NC1=NC(c2ccncc2)(c2cccc(-c3cccnc3F)c2)C2=NCCCN12 (stereo not drawn) | 125 to 131 |
| CCC(Cl)(CC)C(CO)N=O (stereo not drawn) | 130 |
| CCc1cccc(C)c1N(CCCC(=O)O)C(=O)CCN(C(C)=O)c1c(C)cccc1C | 139 to 141 |
| Nc1ccc(C(=O)Nc2ccccc2-c2nnn[nH]2)cc1 | 202 to 204 |
| COC(=O)C1=C(CCc2ccccc2)NC(CC(=O)N2CCN(CC(=O)N3CCCC3)CC2)=C(C(=O)OC)C1c1c(Cl)cccc1Cl (stereo not drawn) | 180 to 184 |
| COC(=O)CCn1c2ccc(O)cc2c2c3c(c(-c4ccccc4Cl)cc21)C(=O)NC3=O | 218 to 220 |
| COc1ccc(N2C(=S)N(c3ccc(Oc4ccccc4)cc3)C(=O)C2C)cc1 (stereo not drawn) | 208 to 210 |
| C[C@](O)(COc1ccc(C#N)cc1)C(=O)Nc1ccc(C#N)c(Cl)c1 | 103 to 105 |
| CON(C)C(=O)c1ccc2nc(Cl)nc(-c3cccc(Cl)c3)c2c1 | 110 |
| Nc1cc(OCCO)ncn1 | 133 to 137 |
| CC(C)c1cc(C(=O)Nc2ccc(C(=O)O)o2)oc1C(C)C | 169 to 171 |
| CC(C)OC(=O)c1ncn2c1[C@@H]1CCCN1C(=O)c1ccccc1-2 | 207 to 208 |
| COc1ccc(C=Cc2ccc([N+](=O)[O-])cc2)cc1C | 109 to 111 |
| N#Cc1cc([N+](=O)[O-])ccc1OCC(F)(F)F | 94 |
| CCCc1nc2c(N)nc3ccc(-c4ccc(F)cc4CN)cc3c2s1 | 198 to 201 |
| N=C(N)N(CCCC(C=O)NC(=O)C1CCCN1C(=O)c1cc2ccccc2[nH]1)C(=O)OCc1ccccc1 (stereo not drawn) | 111 to 133 |
| CN1CC=C(C2=Nc3cc(Cl)ccc3Oc3ccc(Cl)cc32)CC1 | 166 to 167 |
| COc1ccc(CNC(=O)[C@@H](NC(=O)[C@H](NCc2ccc(N(C)C)cc2)[C@H](O)[C@H](Cc2ccccc2)NC(=O)OC(C)(C)C)C(C)C)c(O)c1 | 89 to 91 |
| COc1ccc(CCCCCCCOc2ccccc2)cc1 | 32 to 34 |
| CC(C)CNc1cccnc1N1CCN(C(=O)c2ccc(C(=O)NC(C)(C)CO)cn2)CC1 | 140 to 143 |
| Cc1c(NC(=O)c2ccc(NC(=O)c3ccccc3)cc2)ccc2cc(CN3CCCC3)cnc12 | 242 |

| SMILES | melting point [°C] |
| --- | --- |
| COc1ccc(C(=O)C(O)c2ccccc2)cc1 (stereo not drawn) | 99 to 101 |
| CCCn1c(=O)c2[nH]c(C(C)(C)C)nc2n(CCNC(C)=O)c1=O | 194 to 195 |
| Cc1nnc(-c2ccc3occ(-c4ccc(SC(F)(F)F)cc4)c3c2)o1 | 170 to 171 |
| O=C(COc1ncc(Cl)cc1Cl)Nc1ccccc1 | 164 to 166 |
| NS(=O)(=O)c1cc2[nH]c(C(Cl)Cl)nc2cc1Cl | 225 to 227 |
| COc1ccc(C(=O)N2CCc3cc(S(=O)(=O)N4CC(c5ccccc5)NC4=O)ccc32)cc1 (stereo not drawn) | 220 to 222 |
| CCCOc1ccc(C(=O)CN2CCOCC2)cc1-c1nc2c(CCC)nn(C)c2c(=O)[nH]1 | 128 to 129 |
| O=C(O)Cc1c(C(=O)c2ccc3c(c2)OCCO3)[nH]c2ccc(C(F)(F)F)cc12 | > 250 |
| Cc1c(C)c2c(c(C)c1O)CCC(C)(C(=S)Nc1cc(C(C)(C)C)c(O)c(C(C)(C)C)c1)O2 (stereo not drawn) | 172 to 174 |
| C(=C(c1ccccc1)c1ccccc1)c1ccc(N(c2ccccc2)c2ccc3c4c(cccc24)CC3)cc1 | 189 to 190 |
| CC(=O)SCCC(=O)N1[C@@H](c2ccccc2O)SC[C@H]1C(=O)N[C@@H](CC(C)C)C(=O)O | 78 to 84 |
| Cc1[nH]c(=O)sc1C#N | 180 to 181 |
| NNc1cc2c(nn1)CCCCCC2 | 145 to 148 |
| COc1ccc(-c2cc3nccnc3[nH]2)cc1 | 244 to 246 |
| Nc1nc(Cl)cc(C=C(Cl)Cl)n1 | 119 to 120 |
| Clc1ccc2c(C3=CCN(CCNc4ccccn4)CC3)c[nH]c2c1 | 217 to 219 |
| CN(C)Cc1ccc(CSCCNC2=NS(=O)(=O)N=C2NO)o1 | 203 to 205 |
| CNC(=O)N(OC)c1ccc(Oc2ccc3sncc3c2)c(Cl)c1 | 128 |
| OCC1=CC=C(COc2cc(C(F)(F)F)ccc2Cl)SS1 | 94.2 to 96 |
| CC(=O)NC[C@H]1CN(c2ccc(N3CCC(F)(CCl)CC3)c(F)c2)C(=O)O1 | 158 to 160 |
| COc1cc(N)c(I)cc1C(=O)O | 181 |
| N#Cc1ccc(-c2ccc(C(=O)CCC(=O)O)cc2)cc1 | 191 to 193 |
| CN(C)CCNC(=O)c1ccc(S(N)(=O)=O)cc1 | 150 to 151 |
